57 compounds from patent US10202379B2, “Substituted polycyclic carbamoyl pyridone derivative prodrug” (priority 2010, dated 2019) can be followed below.

Where two headings read alike, the source gives them in different places.

One assay deals with influenza virus. Nature of the assay: microbe, parasite or virus in culture. In kind it is cell-based. The settings on record: MDBK or MDCK cells, 3 days, WST-8. In general terms: Tetrazolium dyes change colour on reduction, which living cells bring about.
Assay [1] has as its target Cap-dependant Endonuclease (CEN) (RNP fraction, PB1-PB2-PA complex) (Influenza A virus (strain A/Wilson-Smith/1933 H1N1) (Influenza A virus (strain A/WS/1933 H1N1)), UniProt P15659). In kind it is biochemical, influenza A/WSN/33 virus. The settings on record: parent compounds (Reference examples); room temperature, 60 minutes.
Where [2] appears, read: unidentified influenza virus, 72 h, read-out: CPE EC50, parent compounds (Reference examples).

Turning to `C[C@H](CO)N1CN(C2c3ccccc3CSc3ccccc32)n2ccc(=O)c(O)c2C1=O` (some centres unmarked) [Reference example 373], the EC50 (commonly the concentration needed to bring the measured effect to its halfway point) with influenza virus (setting [2]) turned out to be 50 nM.
Consider `C[C@@H](N1CN([C@@H]2c3ccc(F)cc3SCc3cccc(Cl)c32)n2ccc(=O)c(O)c2C1=O)C(F)(F)F` [compound 772], for which the EC50 with influenza virus (setting [2]) was found to be 3.68 nM. For the same compound, the IC50 (as a rule, the midpoint of a concentration-inhibition curve) in assay [1] turned out to be 5.22 nM.
For `C[C@H](N1CN([C@H]2c3ccc(F)cc3CSc3ccccc32)n2ccc(=O)c(O)c2C1=O)C(F)(F)F` [Reference example 460], the EC50 in the assay with influenza virus (setting [2]) was determined as 9 nM.
For `C#Cc1cccc2c1[C@H](N1CN([C@H](C)C(F)(F)F)C(=O)c3c(O)c(=O)ccn31)c1ccccc1SC2` [compound 730], the EC50 in the assay on influenza virus (setting [2]) was found to be 0.799 nM. Moreover, in assay [1], the IC50 stood at 2.52 nM.
In the same order, the values of `C[C@@H](N1CN(C2c3ccccc3CCc3cc(F)c(F)cc32)n2ccc(=O)c(O)c2C1=O)C(F)(F)F` (some centres unmarked) [Reference example 636] are 15 nM and 74 nM.
In the same order, the values of `C[C@@H](N1CN([C@H]2c3cc(F)ccc3CSc3c(Cl)cccc32)n2ccc(=O)c(O)c2C1=O)C(F)(F)F` [Reference example 658] are 19 nM and 53 nM.
Turning to `C[C@@H](N1CN([C@@H]2c3cccc(F)c3SCc3cccc(F)c32)n2ccc(=O)c(O)c2C1=O)C(F)(F)F` [Reference example 599], the EC50 in the assay with influenza virus (setting [2]) amounted to 8 nM. In addition, the IC50 in assay [1] is 25 nM.
With `CC(C)N1CN(C2c3ccccc3CSc3c(Cl)cccc32)n2ccc(=O)c(O)c2C1=O` (centres unmarked) [Reference example 326], the EC50 in the assay with influenza virus (setting [2]) was found to be 5 nM.
On to `C[C@@H](N1CN([C@@H]2c3ccccc3SCc3cccc(C(F)(F)F)c32)n2ccc(=O)c(O)c2C1=O)C(F)(F)F` [compound 741], for which, in the assay on influenza virus (setting [2]), the EC50 came to 3.51 nM. Besides, the IC50 in assay [1] amounted to 21 nM.
In the same order, the values of `C[C@@H](N1CN([C@H]2c3ccc(F)cc3CSc3c(Br)cccc32)n2ccc(=O)c(O)c2C1=O)C(F)(F)F` [Reference example 619] are 6 nM and 5 nM.
For the compound `O=C1c2c(O)c(=O)ccn2N(C2c3ccccc3CSc3c(Cl)cccc32)CN1[C@@H]1C[C@@H]1F` (some centres unmarked) [Reference example 332], the EC50 with influenza virus (setting [2]) was found to be 20 nM.
For `C[C@@H](N1CN([C@@H]2c3ccccc3CSc3ccccc32)n2ccc(=O)c(O)c2C1=O)C(F)(F)F` [Reference example 414], in the assay on influenza virus (parent compounds (Reference examples), read-out: CPE EC50), the EC50 came to 131 nM.
Consider `COCCN1CC(C(c2ccccc2)c2ccccc2)n2cc(C(=O)O)c(=O)c(O)c2C1=O` (centres unmarked) [Example 2], for which the EC50 with influenza virus (setting [2]) was determined as 293 nM. Besides, the IC50 in assay [1] turned out to be 48 nM.
For `COCCN1CN(C(c2ccccc2)c2ccccc2)n2cc(C(=O)O)c(=O)c(O)c2C1=O` [Example 94], in the assay on influenza virus (setting [2]), the EC50 amounted to 1470 nM.
Still for that read-out and setting: the result for `C[C@@H](N1CN([C@@H]2c3ccccc3SCc3cccc(F)c32)n2ccc(=O)c(O)c2C1=O)C(F)(F)F` [Reference example 456] reads 4 nM; that for `C[C@@H](N1CN([C@H]2c3ccccc3CCc3c(Cl)cccc32)n2ccc(=O)c(O)c2C1=O)C(F)(F)F` [Reference example 639], 17 nM; that for `CC(=O)N(C)CC1N(C(C)C)C(=O)c2c(O)c(=O)ccn2N1C1c2ccccc2CCc2ccccc21` (centres unmarked) [Reference example 525], 90 nM.
Same read-out and setting: the result for `CC(C)N1CN(C2c3ccccc3COc3c(F)cccc32)n2ccc(=O)c(O)c2C1=O` (centres unmarked) [Reference example 403] reads 70 nM; that for `COCCN1CN(C2c3ccccc3COc3c(Cl)cccc32)n2ccc(=O)c(O)c2C1=O` (centres unmarked) [Reference example 396], 60 nM; that for `O=C1c2c(O)c(=O)ccn2N(C2c3ccccc3CSc3ccccc32)CN1C1CCC(F)(F)CC1` (centres unmarked) [Reference example 313], 50 nM.
Consider `CC(C)C1N(CCO)C(=O)c2c(O)c(=O)ccn2N1C1c2ccccc2CCc2ccccc21` (centres unmarked) [Reference example 553], for which, in the assay on influenza virus (setting [2]), the EC50 was determined as 30 nM.
On to `C[C@@H](N1CN([C@H]2c3cc(F)ccc3CSc3ccccc32)n2ccc(=O)c(O)c2C1=O)C(F)(F)F` [Reference example 441], for which the EC50 in the assay on influenza virus (setting [2]) came out at 5 nM.
Same read-out and setting: the result for `C[C@@H](N1CN([C@H]2c3cccc(F)c3CSc3c(F)cccc32)n2ccc(=O)c(O)c2C1=O)C(F)(F)F` [Reference example 469] reads 4 nM; that for `C[C@@H](N1CN([C@H]2c3ccc(F)cc3CSc3c(F)cccc32)n2ccc(=O)c(O)c2C1=O)C(F)(F)F` [Reference example 470], 3 nM.
On the same count and under the same terms, the result for `CCN(CC)CCC1N(C(C)C)C(=O)c2c(O)c(=O)ccn2N1C1c2ccccc2CCc2ccccc21` (centres unmarked) [Reference example 538] reads 30 nM.
On the same count and under the same terms, the result for `COCC(COC)N1CN(C2c3ccccc3CCc3ccccc32)n2ccc(=O)c(O)c2C1=O` [Reference example 272] reads 30 nM; that for `Cc1nnc(CN2CN(C3c4ccccc4CCc4ccccc43)n3ccc(=O)c(O)c3C2=O)o1` [Reference example 256], 400 nM.
In the case of `O=C1c2c(O)c(=O)ccn2N(C2c3ccccc3CCc3ccccc32)CN1Cc1ncns1` [Reference example 271], the EC50 with influenza virus (setting [2]) turned out to be 102 nM.
Still for that read-out and setting: the result for `Cc1cccc2c1SCc1ccccc1C2N1CN(C(C)C)C(=O)c2c(O)c(=O)ccn21` (centres unmarked) [Reference example 356] reads 20 nM; that for `Cc1cccc2c1CSc1c(Cl)cccc1[C@H]2N1CN([C@H](C)C(F)(F)F)C(=O)c2c(O)c(=O)ccn21` [Reference example 612], 13 nM; that for `C[C@@H](N1CN([C@H]2c3ccccc3CSc3ccc(F)cc32)n2ccc(=O)c(O)c2C1=O)C(F)(F)F` [Reference example 448], 8 nM.
On to `C[C@@H](N1CN(C(c2ccccc2)c2ccccc2Cl)n2ccc(=O)c(O)c2C1=O)C(F)(F)F` (some centres unmarked) [Reference example 243], for which the EC50 in the assay with influenza virus (setting [2]) came to 20 nM.
In the case of `O=C(NCCN1CN(C(c2ccccc2)c2ccccc2)n2ccc(=O)c(O)c2C1=O)c1ccccc1` [Example 150], the EC50 in the assay on influenza virus (setting [2]) was 553 nM.
On the same count and under the same terms, the result for `CC(=O)OCCN1CN(C2c3ccccc3CSc3c(Cl)cccc32)n2ccc(=O)c(O)c2C1=O` (centres unmarked) [Reference example 359] reads 80 nM; that for `O=C(O)c1cn2c(c(O)c1=O)C(=O)N1CCCO[C@H]1[C@@H]2C(c1ccccc1)c1ccccc1` [Example 175], 102 nM.
On to `C[C@@H](N1CN([C@@H]2c3ccccc3SCc3c(Cl)cccc32)n2ccc(=O)c(O)c2C1=O)C(F)(F)F` [Reference example 417], for which the EC50 in the assay on influenza virus (setting [2]) amounted to 3 nM.
In the case of `O=C1c2c(O)c(=O)ccn2N([C@H]2c3ccccc3CSc3c(F)cccc32)CN1[C@H](CO)C(F)(F)F` [Reference example 611], the EC50 in the assay with influenza virus (setting [2]) was 43 nM.
Consider `CCOC(=O)CCN1CN(C(c2ccccc2)c2ccccc2)n2ccc(=O)c(O)c2C1=O` [Example 128], for which the EC50 in the assay on influenza virus (setting [2]) is 416 nM.
Turning to `C[C@@H](N1CN([C@H]2c3cccc(C(F)(F)F)c3CSc3c(F)cccc32)n2ccc(=O)c(O)c2C1=O)C(F)(F)F` [Reference example 660], the EC50 in the assay with influenza virus (setting [2]) came out at 11 nM.
On the same count and under the same terms, as for `CN(CCN1CN(C(c2ccccc2)c2ccccc2)n2ccc(=O)c(O)c2C1=O)S(=O)(=O)c1ccccc1` [Example 138], the figure is 100 nM.
Same read-out and setting: as for `COCCN1CN(C2c3ccccc3CSc3c(F)cccc32)n2ccc(=O)c(O)c2C1=O` (centres unmarked) [Reference example 336], the figure is 70 nM; as for `CN1C(=O)c2c(O)c(=O)c(C(=O)O)cn2C[C@H]1C(c1ccccc1)c1ccccc1` [Example 43], 1410 nM.
For the compound `C[C@@H](N1CN([C@H]2c3ccc(F)cc3CSc3ccccc32)n2ccc(=O)c(O)c2C1=O)C(F)(F)F` [Reference example 454], the half-maximal effective concentration (EC50) in the assay with influenza virus (setting [2]) worked out at 4 nM.
On to `COCCN1C[C@H](C(c2ccccc2)c2ccccc2)n2cc(N)c(=O)c(O)c2C1=O` [Example 56], for which, in the assay on influenza virus (setting [2]), the EC50 is 3860 nM.
On the same count and under the same terms, the result for `CN1CN(C2c3ccccc3CSc3cc(Cl)ccc32)n2ccc(=O)c(O)c2C1=O` (centres unmarked) [Reference example 348] reads 80 nM; that for `COCCN1C[C@H](C(c2ccccc2)c2ccccc2)n2cc(Br)c(=O)c(O)c2C1=O` [Example 63], 2000 nM.
As to `COCCN1C[C@H](C(c2ccccc2)c2ccccc2)n2cc(OC)c(=O)c(O)c2C1=O` [Example 62], in the assay with influenza virus (setting [2]), the EC50 was 1680 nM.
As to `CC(C)N1CN(C2c3ccccc3CSc3cc(F)ccc32)n2ccc(=O)c(O)c2C1=O` (centres unmarked) [Reference example 352], the 50% effective concentration (EC50) with influenza virus (setting [2]) was found to be 20 nM.
Consider `C[C@@H](N1CN([C@H]2c3ccccc3CSc3c(F)cccc32)n2ccc(=O)c(O)c2C1=O)C(F)(F)F` [Reference example 444], for which the EC50 in the assay with influenza virus (setting [2]) was determined as 3 nM.
Same read-out and setting: as for `COCCN1C[C@H](C(c2ccccc2)c2ccccc2)n2cc(CO)c(=O)c(O)c2C1=O` [Example 48], the figure is 10900 nM.
Regarding `COCC(COC)N1CN(C2c3ccccc3CSc3c(F)cccc32)n2ccc(=O)c(O)c2C1=O` (centres unmarked) [Reference example 339], in the assay on influenza virus (setting [2]), the EC50 worked out at 40 nM.
The same measure, in the same setting: the result for `C[C@@H](N1CN(C2c3ccccc3CSc3ccc(F)cc32)n2ccc(=O)c(O)c2C1=O)C(F)(F)F` (some centres unmarked) [Reference example 345] reads 8 nM; that for `C[C@@H](N1CN(C2c3ccccc3CSc3cc(F)ccc32)n2ccc(=O)c(O)c2C1=O)C(F)(F)F` (some centres unmarked) [Reference example 344], 9 nM; that for `C[C@@H](N1CN([C@H]2c3ccccc3CSc3c(C#N)cccc32)n2ccc(=O)c(O)c2C1=O)C(F)(F)F` [Reference example 618], 18 nM.
On the same count and under the same terms, the result for `C[C@@H](N1CN([C@@H]2c3ccccc3SCc3c(Br)cccc32)n2ccc(=O)c(O)c2C1=O)C(F)(F)F` [Reference example 463] reads 5 nM; that for `COCCN1CN(Cc2ccccc2-c2ccccc2)n2ccc(=O)c(O)c2C1=O` [Example 99], 2000 nM.
`C[C@@H](N1CN([C@H]2c3cc(Cl)ccc3CSc3ccccc32)n2ccc(=O)c(O)c2C1=O)C(F)(F)F` [Reference example 443]: in the assay on influenza virus (setting [2]), the EC50 was found to be 4 nM.
